Here are results for one compound from PMC8667898, “Topo II inhibition and DNA intercalation by new phthalazine-based derivatives as potent anticancer agents: design, synthesis, anti-proliferative, docking, and in vivo studies” (Journal of Enzyme Inhibition and Medicinal Chemistry, 2021).

The nature of data set [1]: Histopathological examination of liver tissues of SEC-bearing mice. Conditions: H&E stain, ×200. It counts as in vivo, Swiss albino mice. On the procedure:
(§1) The experimental animals were randomly divided into four groups. Group 1 served as the normal saline control (5 ml/kg B.Wt., I.P.). Group 2 served as the SEC control (1 × 10^6 cells/mouse). Group 3 served as the compound-treated group (5 mg/kg B.Wt., I.P.). […] Bodyweight and survival were recorded daily until the 24th day in both treated and control groups. At the end of the experiment, the blood of each group was collected under light anaesthesia to the estimate of hematological and biochemical assays. The anaesthetised animals were then sacrificed for evaluation of the antitumor activity and histopathological examination.
Specimens of liver-sacrificed mice were fixed in 10% saline formalin. The fixed liver specimens were dehydrated in ascending series of ethyl alcohol and embedded in paraffin. Sections at […] thicknesses were stained with haematoxylin and eosin and examined under the light microscope.

Data set [2] relates to HepG-2 cells (hepatocellular carcinoma). Nature of the data set: MTT anti-proliferative assay, HepG-2. It is filed as cell-based, human. On the procedure: Anti-proliferative activities of the target compounds were assessed via the standard MTT method[38–40] against three cancer cell lines, namely, hepatocellular carcinoma (HepG-2), colorectal carcinoma (HCT-116), and human breast adenocarcinoma (MCF-7).
(§2) Anti-proliferative activity of the synthesised compounds was estimated using the MTT assay protocol[8]^,[38–40] as shown in Supplementary data.
(§3) 4.2.1. In vitro anti-proliferative activity against MCF-7, HepG-2 and HCT-116 The cells were cultured in RPMI-1640 medium supplemented with 10% fetal bovine serum (FBS), penicillin (100 unit /mL) and streptomycin sulphate (100µg/mL) at 37 °C in a 5% CO2 incubator.
(§4) Then, cells were dropped in 96-well plates at a density of 3-8 × 10^3 cells/well and incubated for two days in a 5% CO2 incubator at 37 °C. Then, the cells were treated with the synthesized compounds and the cell cultures were continued incubated for 24 h. However, Different concentrations of the compound under test (0.0, 5.0, 12.5, 25.0 and 50 mg/ml) were added to the cell monolayer. Then, (3-[4,5-dimethylthiazol-2-yl]- 2,5-diphenyltetrazolium bromide) MTT solution (20 µl, 5mg/mL) was added to each well and incubated for additional 4 h. The formed purple crystals of MTT-formazan were dissolved in 100 µl DMSO each well; the absorbance of each well was measured at 570 nm using a plate reader (EXL 800, USA). All of the compounds were tested three times. The relative cell viability in percentage was calculated.
(§5) The data represented the mean of three independent experiments in triplicate and were expressed as means ± SD. […]

Data set [3] has as its system Solid Ehrlich Carcinoma (SEC). Nature of the data set: In vivo antitumor activity against Solid Ehrlich Carcinoma. Also on record: species or system Swiss albino mice. As to conditions: SEC-bearing mice, 5 mg/kg BW I.P. On the procedure:
To examine the in vivo anticancer activity of compound 9d, adult female Swiss albino mice (30 mice) inoculated with I.P. injection of Solid Ehrlich Carcinoma (SEC) tumour cell lines in a volume of 0.2 ml physiological saline contains 1 × 10^6 viable cells for 24 h.
These mice were randomly divided into four groups (7 mice/group). […] Bodyweight and survival were recorded daily until the 24th day in both treated and control groups. At the end of the experiment, the blood of each group was collected under light anaesthesia for the estimation of hematological and biochemical assays. The anaesthetised animals were then sacrificed to evaluate of the antitumor activity and to conduct hematological, biochemical, and histopathological assays, Figure 3.
Adult female Swiss albino mice purchased from Theodor Bilharzia Research Institute, Giza, Egypt, with an average bodyweight of (18–23) g were used. Mice were housed under constant conditions of 12 h light/dark cycle in a […], with free access to standard laboratory mice food and water. All procedures related to care and maintenance of the animals were performed according to the international guiding principles for animal research and approved by the Faculty of Science, Suez Canal University bioethics and animal ethics committee (Approval number REC-07–2021).
Solid Ehrlich carcinoma (SEC) was purchased from the National Cancer Institute (Cairo University, Egypt). The tumour cell line was proliferated in mice through serial intraperitoneal (I.P.) transplantation of a volume of 0.2 ml physiological saline contains 1 × 10^6 viable cells for 24 h. SEC cells were collected 7 days after I.P. implantation. The harvested cells were diluted with saline to obtain a concentration of 5 × 10^6 viable SEC cells/mL. A volume of 0.2 ml saline contains 1 × 10^6 SEC cells that were I.P. implanted into each normal mouse. SEC cells (1 × 10^6 tumour cells/mouse) were implanted subcutaneously into the right thigh of the hind limb.
as §1
It includes tumour volume, weight, and tumour inhibition ratio (TIR%). Time interval measurements of tumour volume using digital Vernier calliper (Tricle Brand, Shanghai, China). Measure tumour length and width using a clipper and then calculate tumour volume using formulations V = (L × W × W)/2, where V is tumour volume, W is tumour width, L is tumour length. While TIR% was calculated according to the following equation Tumor volume (Control)−Tumor volume (treated)/Tumor volume (control)× 100.

Data set [4] concerns MCF-7 cells (human breast adenocarcinoma). Nature of the data set: MTT anti-proliferative assay, MCF-7. It counts as cell-based. As to conditions: Homo sapiens, MCF7, MTT, mean ± SD of three separate experiments; read-out: In vitro Cytotoxicity IC50 MCF-7. On the procedure:
Anti-proliferative activities of the target compounds were assessed via the standard MTT method[38–40] against three cancer cell lines, namely, hepatocellular carcinoma (HepG-2), colorectal carcinoma (HCT-116), and human breast adenocarcinoma (MCF-7). Doxorubicin was used in this test as a positive control.
as §2, §3
as §4, with “calculated. The results for IC50 values of the active compounds are […]” for “calculated.”
as §5
of the cells could survive. […]

SMILES strings stand for the structures.

With `CCCc1nnc2c3ccccc3c(NN=Cc3ccc([N+](=O)[O-])cc3)nn12` [Compound 9d, 6-[2–(4-Nitrobenzylidene)hydrazineyl]-3-propyl-[1,2, 4]triazolo[3,4-a]phthalazine], the “Histopathological finding in liver tissue” value in data set [1] was “hepatic cells are near normal and show tissue improvement as compared with a little hydropic degeneration”. The IC50 in data set [2] (Homo sapiens, HepG2, MTT, mean ± SD of three separate experiments, read-out: In vitro Cytotoxicity IC50 HepG-2) amounted to 5.08 ± 0.17 µM; in data set [4] it was 4.95 ± 0.1 µM. Also, the “times more active than doxorubicin, HepG2” value in data set [2] (ratio of IC50 values vs doxorubicin) came out at 1.63 times. The tumour volume in data set [3] amounted to 19 mm^3. Further, the “reduction of the increase in solid tumour mass” value in data set [3] (compared to SEC control) was 63.4%. For the same compound, the solid tumour mass in data set [3] (SEC control 194 mg) is 71 mg. Further, in data set [3] (from tumour volume, compared to control), the “tumour inhibition ratio (TIR) %” value amounted to 64.5%.
